Test results as given in US20260207659A1, “COMPOSITIONS FOR USE IN THE PROPHYLACTIC TREATMENT OF HYPOCALCEMIA IN A RUMINANT ANIMAL” (VILOFOSS A/S, priority 2022, published 2026).
Where “and” joins values, the source holds several entries; their conditions need not be identical. Equal values may be shown once. Read-outs that look alike come from different tables or passages of the source.

Test: In vitro phosphorus binding efficacy in rumen fluid, three phases mimicking the digestive tract of a ruminant (Thilsing et al.)
Parameters: species or system ruminant animal; Phosphate binding in comparison to control, % / P binding in comparison to control, %: concentration or dose not given beside the values
[1] = Table 1, from free phosphate, relative to Zeolite 4A
[2] = Table 1, from free phosphate, relative to untreated control
[3] = Table 2, phase 3 binding capacity, relative to Zeolite 4A
[4] = Table 2, phase 3 binding capacity, relative to control
[5] = phase 3 (after HCl and HCO3-, mimicking small intestine)
[6] = statement in words on Tables 1 and 2
[7] = supernatant of rumen fluid after addition of HCl and HCO3-, 0.06 g compound/8 ml rumen fluid

Row | Phosphate binding in comparison to 4A, % [1] [%] | Phosphate binding in comparison to control, % [2] [%] | Phosphate binding in comparison to 4A, % [3] [%] | P binding in comparison to control, % [4] [%] | Phosphate Binding Capacity [5] | Phosphorus binding compared to other compounds, including Zeolite 4A alone [6] | Free Phosphate [7] [mmol] | SMILES | Free Phosphate [mmol] | P binding in comparison to control, % [%] | Phosphate Binding Capacity | Phosphate binding in comparison to 4A, % | Phosphate binding in comparison to control, % [%] | Phosphorus binding compared to other compounds, including Zeolite 4A alone
1 | – | – | – | – | – | – | – | O=S(=O)([O-])[O-].[Fe+2] [Iron (II) sulphate] | 8.2 | 75 | 69.3 mg Phosphate/gram of compound | 36.5% and 56% | 58.3 | superior
2 | 22.6 | 49.2 | 72 | 84 | 77.7 mg Phosphate/gram of compound | superior | 10.0 | O=C([O-])[O-].O=C([O-])[O-].O=C([O-])[O-].[La+3].[La+3] [Lanthanum carbonate, hydrated, reference compound] | – | – | – | – | – | –
3 | 45.6 | 64.3 | 94 | 96 | 88.9 mg Phosphate/gram of compound | superior | 7.0 | [Cl][Al]([Cl])[Cl] [Aluminium chloride] | – | – | – | – | – | –

Row | SMILES | Phosphate binding in comparison to 4A, % [1] [%] | Phosphate binding in comparison to control, % [2] [%] | Phosphate binding in comparison to 4A, % [3] [%] | P binding in comparison to control, % [4] [%] | Phosphate Binding Capacity [5] | Phosphorus binding compared to other compounds, including Zeolite 4A alone [6] | Free Phosphate [7] [mmol] | Free Phosphate [mmol] | P binding in comparison to control, % [%] | Phosphate Binding Capacity | Phosphate binding in comparison to 4A, % | Phosphate binding in comparison to control, % [%] | Phosphorus binding compared to other compounds, including Zeolite 4A alone
4 | [Cl][La]([Cl])[Cl] [Lanthanum chloride] | 51.1 | 67.9 | 62 | 79 | 72.8 mg Phosphate/gram of compound | superior | 6.3 | – | – | – | – | – | –
